Assay results as given in patent US5532231A, “Antibacterial agent” (priority 1994, dated 1996).

What was measured:
[1] = format: physicochemical
Experimental: Focusin and TA at concentrations of 3 mg/ml were diluted either in ethanol or in saline containing 1% ethanol to yield a final concentration in each case of 30 μg/ml. The solutions were mixed at 37° C. for one hour under shaking, and then were centrifuged at 5000 g for 10 minutes. Several samples were taken from the supernatants of the tubes and were applied on disc filters in order to determine the concentration of the antibacterial agents in the saline and ethanol solutions, by the paper disc bioassay method.

E. coli ESS = experiment: Antimicrobial spectrum, liquid media, viable cell count; format: cell-based, Escherichia coli; settings: saturating concentrations
Experimental: (§1) Saturated solutions of TA and Focusin were prepared by adding 1.14 μg TA and 7 μg Focusin to 1 ml LB (final conc. of 1% ethanol). About 10^5 bacteria of various strains were then added. The control was bacteria in the same medium with no antibacterial agents. The bacteria were introduced at 37° C. with shaking at 100 rpm. When the control became turbid, viable cell count was performed on LB agar plates. Growth inhibition is presented as percentage of the no antibiotic control.

E. coli K-12 = experiment: as above; format: cell-based, Escherichia coli; settings: saturating concentrations
Experimental: as §1

Bacillus subtilis = experiment: as above; format: cell-based; settings: saturating concentrations
Experimental: as §1

Citrobacter diversus = experiment: as above; format: cell-based; settings: saturating concentrations
Experimental: as §1

Enterobacter = experiment: as above; format: cell-based; settings: saturating concentrations
Experimental: as §1

Erwinia herbicola = experiment: as above; format: cell-based; settings: saturating concentrations
Experimental: as §1

Helicobacter pilori = experiment: as above; format: cell-based; settings: saturating concentrations
Experimental: as §1

Klebsiella Gr47 = experiment: as above; format: cell-based; settings: saturating concentrations; hospital strain
Experimental: as §1

Klebsiella pneumoniae = experiment: as above; format: cell-based; settings: saturating concentrations; hospital strain
Experimental: as §1

Klebsiella sp = experiment: as above; format: cell-based; settings: saturating concentrations; hospital strain
Experimental: as §1

Proteus vulgaris = experiment: as above; format: cell-based; settings: saturating concentrations
Experimental: as §1

Providencia strautii = experiment: as above; format: cell-based; settings: saturating concentrations
Experimental: as §1

Pseudomonas aeruginosa = experiment: as above; format: cell-based; settings: saturating concentrations
Experimental: as §1

Salmonella thyphimurium = experiment: as above; format: cell-based; settings: saturating concentrations
Experimental: as §1

Serratia marcescens = experiment: as above; format: cell-based; settings: saturating concentrations
Experimental: as §1

Staphylococcus albus = experiment: as above; format: cell-based
Experimental: as §1

CCCC1OC(=O)C(C)CC(C)CCCCC(=O)CCCC(CC)CCCC(COC)CCC(O)C(O)CC(O)CNC1=O (centres unmarked) [Focusin]
aqueous solubility compared with TA (in words) [1]: higher aqueous solubility than TA
solubility in ethanol [1]: completely soluble
solubility in saline ([1]; saline with 1% ethanol, 1 h): about 7 μg/ml
killing (E. coli ESS): 100%
killing (E. coli K-12): 100%
killing (Bacillus subtilis): 100%
killing (Citrobacter diversus): 100%
killing (Enterobacter): 100%
killing (Erwinia herbicola): 100%
killing (Helicobacter pilori): 100%
killing (Klebsiella Gr47): 100%
killing (Klebsiella pneumoniae): 96%
killing (Klebsiella sp): 60%
killing (Proteus vulgaris): 90%
killing (Providencia strautii): 100%
killing (Pseudomonas aeruginosa): 0%
killing (Salmonella thyphimurium): 40%
killing (Serratia marcescens): 67%
incubation time after which the strain began to show sensitivity (Staphylococcus albus; saturating concentrations): > 46 h
killing (Staphylococcus albus; saturating concentrations (Focusin), on the 46th hour): 73%
